Experiments:
[1] = system: ragweed; assay: Test A preemergence; type: in vivo, Ambrosia artemisiifolia; settings: 1000 g ai/ha, 0 to 100 scale (0 no effect, 100 complete control), 10 days
Summary of the method: (§1)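 Plants were grown in loam and sand and treated preemergence or postemergence (one- to two-leaf stage, 2–10 cm) with compound in solvent plus surfactant. Response was scored against untreated controls after 10 greenhouse days, where 0 means no effect and 100 complete control.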

[2] = system: foxtail, giant; assay: Test A preemergence; type: in vivo, Setaria faberi; settings: 1000 g ai/ha, 0 to 100 scale (0 no effect, 100 complete control), 10 days
Summary of the method: as §1

[3] = system: barnyardgrass; assay: Test A preemergence; type: in vivo, Echinochloa crusgalli; settings: 1000 g ai/ha, 0 to 100 scale (0 no effect, 100 complete control), 10 days
Summary of the method: as §1

[4] = system: kochia; assay: Test A preemergence; type: in vivo, Bassia scoparia; settings: 1000 g ai/ha, 0 to 100 scale (0 no effect, 100 complete control), 10 days
Summary of the method: as §1

[5] = system: ryegrass, Italian; assay: Test A preemergence; type: in vivo, Lolium multiflorum; settings: 1000 g ai/ha, 0 to 100 scale (0 no effect, 100 complete control), 10 days
Summary of the method: as §1

[6] = system: Pigweed, Redroot; assay: Test A preemergence; type: in vivo, Amaranthus retroflexus; settings: 1000 g ai/ha, 0 to 100 scale (0 no effect, 100 complete control), 10 days
Excerpt: Seeds of plant species selected from barnyardgrass (Echinochloa crusgalli), blackgrass (Alopecurus myosuroides), corn (Zea mays), foxtail, giant (giant foxtail, Setaria faberi), goosegrass (Eleusine indica), kochia (Bassia scoparia), oat, wild (wild oat, Avena fatua), pigweed, palmer (palmer amaranth, palmer pigweed, Amaranthus palmeri), Pigweed, Redroot (redroot pigweed, Amaranthus retroflexus), ragweed (common ragweed, Ambrosia artemisiifolia), ryegrass, Italian (italian ryegrass, Lolium multiflorum), soybean (Glycine max), and wheat (Triticum aestivum) were planted into a blend of loam soil and sand and treated preemergence with a directed soil spray using test chemicals formulated in a non-phytotoxic solvent mixture which included a surfactant. At the same time, plants selected from these crops and weed species and also galium (catchweed bedstraw, Galium aparine) and horseweed (Erigeron canadensis) were planted in pots containing the same blend of loam soil and sand and treated with postemergence applications of test chemicals formulated in the same manner. Plants ranged in height from 2 to 10 cm and were in the one- to two-leaf stage for the postemergence treatment. Treated plants and untreated controls were maintained in a greenhouse for 10 days, after which time all treated plants were compared to untreated controls and visually evaluated for injury. Plant response ratings, summarized in Table A, are based on a 0 to 100 scale where 0 is no effect and 100 is complete control. A dash (-) response means no test result.

[7] = system: ryegrass, Italian; assay: Test C postemergence; type: in vivo, Lolium multiflorum; settings: 10 days, 0 to 100 scale (0 no effect, 100 complete control)
Summary of the method: (§2)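 Seeds sown in loam soil–sand blend received a directed preemergence soil spray of test chemical in non-phytotoxic solvent with surfactant; postemergence plants (2–10 cm, one- to two-leaf stage) were sprayed with the same formulation. Greenhouse-held 10 days, then visually rated for injury versus untreated controls, 0 (no effect) to 100 (complete control).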

[8] = system: oat, wild; assay: Test C postemergence; type: in vivo, Avena fatua; settings: 10 days, 0 to 100 scale (0 no effect, 100 complete control)
Summary of the method: as §2

[9] = system: blackgrass; assay: Test C preemergence; type: in vivo, Alopecurus myosuroides; settings: preemergence, 0 to 100 scale (0 no effect, 100 complete control)
Summary of the method: as §2

[10] = system: barnyardgrass; assay: Test C postemergence; type: in vivo, Echinochloa crusgalli; settings: 10 days, 0 to 100 scale (0 no effect, 100 complete control)
Summary of the method: as §2

[11] = system: kochia; assay: Test C preemergence; type: in vivo, Bassia scoparia; settings: preemergence, 0 to 100 scale (0 no effect, 100 complete control)
Summary of the method: as §2

[12] = system: oat, wild; assay: Test C preemergence; type: in vivo, Avena fatua; settings: preemergence, 0 to 100 scale (0 no effect, 100 complete control)
Summary of the method: as §2

[13] = system: kochia; assay: Test C postemergence; type: in vivo, Bassia scoparia; settings: 10 days, 0 to 100 scale (0 no effect, 100 complete control)
Summary of the method: as §2

[14] = system: soybean; assay: Test C postemergence; type: in vivo, Glycine max; settings: 10 days, 0 to 100 scale (0 no effect, 100 complete control)
Summary of the method: as §2

[15] = system: foxtail, giant; assay: Test C preemergence; type: in vivo, Setaria faberi; settings: preemergence, 0 to 100 scale (0 no effect, 100 complete control)
Summary of the method: as §2

[16] = system: rice; assay: Test D flooded paddy test; type: in vivo, Oryza sativa; settings: 250 g ai/ha, applied to paddy water, visual rating after 13 to 14 days, scale 0 to 100 (0 no effect, 100 complete control)
Summary of the method: (§3)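 Seedlings reached the 2-leaf stage, then pots were flooded to 3 cm over the soil surface. Compound was applied into the water, depth was maintained, and plants stayed in the greenhouse 13 to 14 days before visual scoring (0–100) relative to controls.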

[17] = system: sedge, umbrella; assay: Test D flooded paddy test; type: in vivo, Cyperus difformis; settings: 250 g ai/ha, applied to paddy water, visual rating after 13 to 14 days, scale 0 to 100 (0 no effect, 100 complete control)
Summary of the method: as §3

[18] = system: foxtail, giant; assay: Test C postemergence; type: in vivo, Setaria faberi; settings: 10 days, 0 to 100 scale (0 no effect, 100 complete control)
Summary of the method: as §2

[19] = system: wheat; assay: Test C postemergence; type: in vivo, Triticum aestivum; settings: 10 days, 0 to 100 scale (0 no effect, 100 complete control)
Summary of the method: as §2

[20] = system: pigweed, palmer; assay: Test C postemergence; type: in vivo, Amaranthus palmeri; settings: 10 days, 0 to 100 scale (0 no effect, 100 complete control)
Summary of the method: as §2

[21] = system: barnyardgrass; assay: Test D flooded paddy test; type: in vivo, Echinochloa crus-galli; settings: 250 g ai/ha, applied to paddy water, visual rating after 13 to 14 days, scale 0 to 100 (0 no effect, 100 complete control)
Summary of the method: as §3

[22] = system: barnyardgrass; assay: Test C preemergence; type: in vivo, Echinochloa crusgalli; settings: preemergence, 0 to 100 scale (0 no effect, 100 complete control)
Summary of the method: as §2

[23] = system: ryegrass, Italian; assay: Test C preemergence; type: in vivo, Lolium multiflorum; settings: preemergence, 0 to 100 scale (0 no effect, 100 complete control)
Summary of the method: as §2

[24] = system: ducksalad; assay: Test D flooded paddy test; type: in vivo, Heteranthera limosa; settings: 250 g ai/ha, applied to paddy water, visual rating after 13 to 14 days, scale 0 to 100 (0 no effect, 100 complete control)
Summary of the method: as §3

[25] = system: ragweed; assay: Test C preemergence; type: in vivo, Ambrosia artemisiifolia; settings: preemergence, 0 to 100 scale (0 no effect, 100 complete control)
Summary of the method: as §2

[26] = system: galium; assay: Test C postemergence; type: in vivo, Galium aparine; settings: 10 days, 0 to 100 scale (0 no effect, 100 complete control)
Summary of the method: as §2

[27] = system: pigweed, palmer; assay: Test C preemergence; type: in vivo, Amaranthus palmeri; settings: preemergence, 0 to 100 scale (0 no effect, 100 complete control)
Summary of the method: as §2

[28] = system: soybean; assay: Test C preemergence; type: in vivo, Glycine max; settings: preemergence, 0 to 100 scale (0 no effect, 100 complete control)
Summary of the method: as §2

[29] = system: ragweed; assay: Test C postemergence; type: in vivo, Ambrosia artemisiifolia; settings: 10 days, 0 to 100 scale (0 no effect, 100 complete control)
Summary of the method: as §2

[30] = system: corn; assay: Test C postemergence; type: in vivo, Zea mays; settings: 10 days, 0 to 100 scale (0 no effect, 100 complete control)
Summary of the method: as §2

[31] = system: wheat; assay: Test C preemergence; type: in vivo, Triticum aestivum; settings: preemergence, 0 to 100 scale (0 no effect, 100 complete control)
Summary of the method: as §2

[32] = system: blackgrass; assay: Test C postemergence; type: in vivo, Alopecurus myosuroides; settings: 10 days, 0 to 100 scale (0 no effect, 100 complete control)
Summary of the method: as §2

[33] = system: horseweed; assay: Test C postemergence; type: in vivo, Erigeron canadensis; settings: 10 days, 0 to 100 scale (0 no effect, 100 complete control)
Summary of the method: as §2

[34] = system: corn; assay: Test C preemergence; type: in vivo, Zea mays; settings: preemergence, 0 to 100 scale (0 no effect, 100 complete control)
Summary of the method: as §2

For `CCC1CN(C(=O)c2ccnc(-n3cncn3)c2)c2ccc(Cl)cc2O1` (stereo not shown) [Compound 16], the “Plant response rating, Ragweed” value [1] was 0, the “Plant response rating, Foxtail, Giant” value [2] was 0 and the “Plant response rating, Barnyardgrass” value [3] was 0. The “Plant response rating, Kochia” value [4] was 20, the “Plant response rating, Ryegrass, Italian” value [5] was 0 and the “Plant response rating, Pigweed, Redroot” value [6] was 20.
`CC(C)c1cc(C(=O)N2C[C@H](C)Oc3c(Cl)cccc32)cc(-n2cncn2)c1` [Compound 316] was tested, and the “Plant response rating, Ryegrass, Italian” value ([7]; 500 g ai/ha, postemergence) was 80, the “Plant response rating, Ryegrass, Italian” value ([7]; Postemergence, 125 g ai/ha) was 30 and the “Plant response rating, Oat, Wild” value ([8]; 500 g ai/ha, postemergence) was 20. The “Plant response rating, Oat, Wild” value ([8]; Postemergence, 125 g ai/ha) was 0, the “Blackgrass plant response rating” value ([9]; 500 g ai/ha) was 90 and the “Blackgrass plant response rating” value ([9]; Test C, 125 g ai/ha) was 50. For the same compound, the “Plant response rating, Barnyardgrass” value ([10]; 500 g ai/ha, postemergence) was 50, the “Plant response rating, Barnyardgrass” value ([10]; Postemergence, 125 g ai/ha) was 10 and the “Kochia plant response rating” value ([11]; 500 g ai/ha) was 0. The “Kochia plant response rating” value ([11]; Test C, 125 g ai/ha) was 0, the “Oat, Wild plant response rating” value ([12]; 500 g ai/ha) was 40 and the “Oat, Wild plant response rating” value ([12]; Test C, 125 g ai/ha) was 20. The “Plant response rating, Kochia” value ([13]; 500 g ai/ha, postemergence) was 80, the “Plant response rating, Kochia” value ([13]; Postemergence, 125 g ai/ha) was 30 and the “Plant response rating, Soybean” value ([14]; 500 g ai/ha, postemergence) was 100. The “Plant response rating, Soybean” value ([14]; Postemergence, 125 g ai/ha) was 100, the “Foxtail, Giant plant response rating” value ([15]; 500 g ai/ha) was 100 and the “Foxtail, Giant plant response rating” value ([15]; Test C, 125 g ai/ha) was 80. The “Plant response rating, Rice (Flood)” value [16] was 0, the “Plant response rating, Sedge, Umbrella (Flood)” value [17] was 0 and the “Plant response rating, Foxtail, Giant” value ([18]; 500 g ai/ha, postemergence) was 90. The “Plant response rating, Foxtail, Giant” value ([18]; Postemergence, 125 g ai/ha) was 10, the “Plant response rating, Wheat” value ([19]; 500 g ai/ha, postemergence) was 20 and the “Plant response rating, Wheat” value ([19]; Postemergence, 125 g ai/ha) was 10. For the same compound, the “Plant response rating, Pigweed, Palmer” value ([20]; 500 g ai/ha, postemergence) was 60, the “Plant response rating, Pigweed, Palmer” value ([20]; Postemergence, 125 g ai/ha) was 30 and the “Plant response rating, Barnyardgrass (Flood)” value [21] was 0. For the same compound, the “Barnyardgrass plant response rating” value ([22]; 500 g ai/ha) was 90, the “Barnyardgrass plant response rating” value ([22]; Test C, 125 g ai/ha) was 30 and the “Ryegrass, Italian plant response rating” value ([23]; 500 g ai/ha) was 90. For the same compound, the “Ryegrass, Italian plant response rating” value ([23]; Test C, 125 g ai/ha) was 70, the “Plant response rating, Ducksalad (Flood)” value [24] was 0 and the “Ragweed plant response rating” value ([25]; 500 g ai/ha) was 0. For the same compound, the “Ragweed plant response rating” value ([25]; Test C, 125 g ai/ha) was 0, the “Plant response rating, Galium” value ([26]; 500 g ai/ha, postemergence) was 90 and the “Plant response rating, Galium” value ([26]; Postemergence, 125 g ai/ha) was 40. The “Pigweed, Palmer plant response rating” value ([27]; 500 g ai/ha) was 90, the “Pigweed, Palmer plant response rating” value ([27]; Test C, 125 g ai/ha) was 60 and the “Soybean plant response rating” value ([28]; 500 g ai/ha) was 50. For the same compound, the “Soybean plant response rating” value ([28]; Test C, 125 g ai/ha) was 0, the “Plant response rating, Ragweed” value ([29]; 500 g ai/ha, postemergence) was 0 and the “Plant response rating, Ragweed” value ([29]; Postemergence, 125 g ai/ha) was 0. The “Plant response rating, Corn” value ([30]; 500 g ai/ha, postemergence) was 70, the “Plant response rating, Corn” value ([30]; Postemergence, 125 g ai/ha) was 20 and the “Wheat plant response rating” value ([31]; 500 g ai/ha) was 20. The “Wheat plant response rating” value ([31]; Test C, 125 g ai/ha) was 0, the “Plant response rating, Blackgrass” value ([32]; 500 g ai/ha, postemergence) was 70 and the “Plant response rating, Blackgrass” value ([32]; Postemergence, 125 g ai/ha) was 50. For the same compound, the “Plant response rating, Horseweed” value ([33]; 500 g ai/ha, postemergence) was 0, the “Plant response rating, Horseweed” value ([33]; Postemergence, 125 g ai/ha) was 0 and the “Corn plant response rating” value ([34]; 500 g ai/ha) was 40. For the same compound, the “Corn plant response rating” value ([34]; Test C, 125 g ai/ha) was 10.
For `CCC1CN(C(=O)c2ccnc(-n3cncn3)c2)c2cc(Cl)ccc2O1` (stereo not shown) [Compound 12], the “Plant response rating, Ragweed” value [1] was 0, the “Plant response rating, Foxtail, Giant” value [2] was 20 and the “Plant response rating, Barnyardgrass” value [3] was 0. For the same compound, the “Plant response rating, Kochia” value [4] was 0, the “Plant response rating, Ryegrass, Italian” value [5] was 0 and the “Plant response rating, Pigweed, Redroot” value [6] was 0.
